{"source": "ChEMBL document CHEMBL1122789", "about": "“Synthesis and biological activity of structural analogues of the anticancer benzophenanthridine alkaloid nitidine chloride” (1984)", "key": {"MX1": {"tested_on": "MX1", "assay": "Evaluated for anticancer activity in tumor inhibition system MX-1 breast xenograph at a dose of 600 mg/kg; Number of Tested survived/number of control survived (0/6)", "assay_type": "functional, Homo sapiens"}, "L1210": {"tested_on": "L1210", "assay": "Evaluated for anticancer activity in survival tumor system L1210 lymphoid leukemia at dose 50 mg/kg", "assay_type": "functional, Mus musculus"}, "[1]": {"tested_on": "Lewis lung carcinoma cell line", "assay": "Evaluated for anticancer activity in survival tumor system Lewis lung (LL) carcinoma at dose 50 mg/kg", "assay_type": "functional, Mus musculus"}, "P388": {"tested_on": "P388", "assay": "Evaluated for anticancer activity in survival tumor system P388 lymphocytic leukemia at a dose of 200 mg/kg; Number of Tested survived/number of control survived (0/6)", "assay_type": "functional, Mus musculus"}}}
{"smiles": "COc1cc2c[n+](C)c3c(c2cc1OC)Cc1cc2c(cc1-3)OCO2.[Cl-]", "values": [{"measurement": "Survival", "setting": "MX1", "value": 0}, {"measurement": "T/C", "setting": "L1210", "value": 198, "unit": "%"}, {"measurement": "T/C", "setting": "[1]", "value": 119, "unit": "%"}, {"measurement": "Survival", "setting": "P388", "value": 0}]}
